According to PMC5216877, “Exploring conformational equilibria of a heterodimeric ABC transporter” (eLife, 2017):
Where two headings read alike, the source gives them in different places.

What was measured:
TM287/288 [1] = target: T1, TM287/288 (Thermotoga maritima, UniProt Q9WYC3+Q9WYC4, C28S/C496S/C519S/C558S/C73S); assay: Inhibition of ATPase activity of TM287/288 by vanadate and nucleotides; format: biochemical; settings: for IC50: 500 µM ATP; for Ki: calculated from IC50 and Km
Protocol: Nucleotide binding and hydrolysis follow a complex mechanism in heterodimeric ABC exporters, due to the existence of a degenerate and a consensus site in the NBDs. […] Using the relation IC50=Ki(1+[S]/Km), Ki values for the respective nucleotides were determined (Table 2). […] It is well established that ATPγS is slowly hydrolyzed by ATPases, as for example the F1Fo-ATPase ([Turina and Capaldi, 1994]). […] It is reasonable to assume that TM287/288 is as well capable of slow ATPγS hydrolysis. In addition, we tested whether TM287/288 hydrolyzes AMP-PNP. In contrast to ATPγS, hydrolysis of AMP-PNP releases Pi, which can be detected by the molybdate/malachite green method.
(§1) in which f corresponds to the ATPase activity at the respective inhibitor concentration divided by the ATPase activity in the absence of inhibitor normalized to 100%, y0 corresponds to the residual activity at infinite inhibitor concentration, a corresponds to the maximal degree of inhibition (a+y0=100%) and x corresponds to the inhibitor concentration.
(§2) Ki values were calculated according to the formula Ki=IC50/(1+[S]/Km)
(§3) IC50 and Km values were obtained from data fitting as outlined above.
(§4) Standard errors for the Ki values were calculated by error propagation: σKi = (Km/Km+[S])^2 σIC502+ ([S]IC50/(Km+[S])^2)^2 σKm2
(§5) in which the σIC50 and σKm are standard errors obtained from data fitting in SigmaPlot and σKi is the standard error for Ki .

TM287/288 [2] = assay: DEER two-Gaussian fit of IF/OF populations, wildtype TM287/288; design: species or system Thermotoga maritima; settings: estimated errors 10%
Protocol: All nucleotides and nucleotide analogs used in this study were added at saturating conditions well above their Ki values (Table 2). […] Therefore, the IF/OF fractions detected in the sample reflect the average life time that the nucleotide-bound transporter spends in either conformation. To rank the nucleotides in terms of their ability to support the transition to the OF conformation, we used three representative pairs in the wildtype transporter and the E-to-Q mutant: one in the extracellular region (50^TM287/271^TM287), one in the intracellular region (131^TM288/248^TM288) of the TMDs, and one in the NBDs (460^TM287/363^TM288) for which the distance peaks corresponding to the two states were distinguishable. A two-Gaussian fit of the DEER traces was performed to obtain the area of the corresponding IF and OF distance peaks (Figure 5—source data 1). The rank of nucleotides with respect to increasing fractions of the OF populations (Figure 5A) was: ADP-Mg ≈ AMP-PNP-Mg < ATP-EDTA < ATPγS-Mg < ATP-Mg < ATP-Vi-Mg. The order is similar for the wildtype and E-to-Q mutant transporter. However, the OF state is in general more populated in the E-to-Q mutant, which is best explained by an alteration of the energy profile caused by the mutation. This notion is best appreciated for ATP-EDTA and ATP-Mg, which could trigger an almost complete switch in the molecular ensemble of the E-to-Q mutant (Figure 5B).
The labeling efficiency of the double cysteine mutants of the transporters solubilized in detergent was measured at 25°C using an X-band Miniscope 400 EPR spectrometer (Magnettech by Freiberg Instrument). Samples were loaded into glass capillaries with the inner diameter of 0.9 mm and spectra were measured with 14 mT field sweep, 0.15 mT modulation amplitude, 2.5 mW microwave power. The calculated spin labeling efficiencies of the twelve mutants ranged between 70–90% (the second integral of the EPR spectra was calculated with the software available at spintoolbox.com). The high degree of labeling is correlated with the 0.3–0.4 modulation depths of all Q-band DEER traces presented. For DEER measurements, 10% v/v D8- glycerol was added prior to snap freezing. The range of final protein concentrations was 12 to 41 µM. 40 µL of sample were loaded in quartz tubes with 3 mm outer diameter. If not stated differently, samples were incubated at 25°C for 10 min (TM287/288 and MsbA) or 15 min (BmrCD) and snap frozen in liquid nitrogen. To study the effect of high physiological temperatures on the frozen dynamics of the transporter, samples were loaded in the quartz tubes, incubated for 3 min at 80°C on a heat block and snap frozen in a mixture of isopentane and liquid nitrogen to minimize the freezing time. […] The nucleotide analogs AMP-PNP-Mg and ATPγS-Mg (2.5 mM) were also prepared in the presence of 2.5 mM MgCl2. In case of ADP-Mg, 2.5 mM ADP and 2.5 mM MgCl2 were added.
Double electron-electron resonance (DEER) measurements were performed at 50 K on a Bruker ELEXSYS E580Q-AWG (arbitrary wave generator) dedicated pulse Q-band spectrometer equipped with a 150 W TWT amplifier. A 4-pulse DEER sequence with rectangular, non-selective observer and pump pulses of 14 or 16 ns length (depending on the available B1 at the sample) with 100 MHz frequency separation was used ([Polyhach et al., 2012]). Due to the coherent nature of the AWG generated pulses, a four-step phase cycling (0 – π/2 - π – 3/2π) of the pump π pulse was performed to remove unwanted effects of running echoes from the DEER trace. The evaluation of the DEER data was performed using DeerAnalysis2015 ([Jeschke et al., 2006]). The background of the primary DEER traces was corrected using stretched exponential functions with homogeneous dimensions of 1.5 to 3 for different samples. A model-free Tikhonov regularization was used to extract distance distributions from the background corrected form factors. […]

ABCB1 = system: ABCB1; design: method as in Siarheyeva et al., 2010; settings: ref Siarheyeva et al., 2010; cited from earlier work
BmrCD = target: T2, BmrCD (Bacillus subtilis, UniProt O07549+O07550, C154A/C256A/C351A); assay: Inhibition of ATPase activity of BmrCD by nucleotide analogs; format: biochemical
T2 construct: made in house; host or cells: E. coli MC1061
T2 sequence (O07550 whole entry): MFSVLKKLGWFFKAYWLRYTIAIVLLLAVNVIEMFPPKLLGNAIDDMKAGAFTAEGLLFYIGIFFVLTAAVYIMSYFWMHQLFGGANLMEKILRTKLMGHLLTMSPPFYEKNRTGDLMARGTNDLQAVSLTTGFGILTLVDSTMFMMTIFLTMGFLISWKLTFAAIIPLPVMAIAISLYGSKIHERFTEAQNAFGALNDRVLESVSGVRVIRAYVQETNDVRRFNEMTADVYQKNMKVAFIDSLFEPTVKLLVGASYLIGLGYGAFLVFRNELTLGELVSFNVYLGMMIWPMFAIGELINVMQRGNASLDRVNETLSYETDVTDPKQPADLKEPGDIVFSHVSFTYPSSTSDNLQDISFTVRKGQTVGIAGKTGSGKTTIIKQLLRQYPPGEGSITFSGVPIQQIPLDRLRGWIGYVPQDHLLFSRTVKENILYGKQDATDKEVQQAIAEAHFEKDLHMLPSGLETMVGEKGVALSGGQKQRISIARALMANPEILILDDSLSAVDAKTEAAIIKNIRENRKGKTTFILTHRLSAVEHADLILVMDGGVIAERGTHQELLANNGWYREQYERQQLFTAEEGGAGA
T2 sequence (O07549 whole entry C154A/C256A/C351A): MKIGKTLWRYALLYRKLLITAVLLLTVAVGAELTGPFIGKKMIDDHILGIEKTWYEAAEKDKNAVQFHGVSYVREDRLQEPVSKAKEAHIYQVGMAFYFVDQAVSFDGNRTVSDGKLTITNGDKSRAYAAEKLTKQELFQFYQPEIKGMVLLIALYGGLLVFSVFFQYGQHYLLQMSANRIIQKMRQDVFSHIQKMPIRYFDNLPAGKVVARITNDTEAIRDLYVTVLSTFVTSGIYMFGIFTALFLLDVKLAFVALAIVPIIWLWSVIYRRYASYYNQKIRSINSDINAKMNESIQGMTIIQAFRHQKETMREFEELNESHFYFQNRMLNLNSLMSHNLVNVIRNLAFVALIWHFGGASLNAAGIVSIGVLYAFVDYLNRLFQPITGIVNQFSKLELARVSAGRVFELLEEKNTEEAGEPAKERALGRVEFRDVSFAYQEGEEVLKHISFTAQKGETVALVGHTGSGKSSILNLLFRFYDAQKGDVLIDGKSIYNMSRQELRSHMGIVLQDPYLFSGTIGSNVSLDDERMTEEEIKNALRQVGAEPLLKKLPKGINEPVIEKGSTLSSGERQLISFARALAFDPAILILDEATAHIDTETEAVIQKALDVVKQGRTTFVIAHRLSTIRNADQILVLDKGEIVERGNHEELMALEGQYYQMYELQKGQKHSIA
Protocol: as §1, §2, §3, §4, §5

TM287/288 [3] = target: T1, TM287/288; assay: ATPase activity of detergent-purified wildtype TM287/288 (molybdate/malachite green phosphate detection); format: biochemical
TM287/288 [4] = assay: Hoechst 33342 stimulated ATPase activity of TM287/288 reconstituted into proteoliposomes; format: biochemical, Thermotoga maritima; settings: 50, 100 and 150 µM Hoechst 33342, 50°C, wildtype and spin-labeled mutants, maximal at 50 or 100 µM, bell-shaped
Protocol: To carry out DEER measurements in a lipidic environment (pair 131^TM288/248^TM288) as well as for the investigation of drug-stimulated ATPase activity of all pairs, spin-labeled TM287/288 was reconstituted into proteoliposomes consisting of E. coli polar lipids and egg phosphatidylcholine mixed at a ratio of 3:1 in 50 mM K-HEPES pH 7.0 as described elsewhere ([Hürlimann et al., 2016]; [Geertsma et al., 2008]). […] Reconstituted TM287/288_E517Q^TM288 was used for background subtraction.

[5] = TM287/288, 50°C, read-out: IC50
[6] = spin-labeled pair 50^TM287-271^TM287 WT
[7] = spin-labeled pair 131^TM288-248^TM288 WT
[8] = spin-labeled pair 460^TM287-363^TM288 WT
[9] = wildtype TM287/288, ATP-Mg + 2.5 mM EDTA, 50°C, detergent
[10] = wildtype TM287/288, ATP-Mg + 1 mM vanadate, 50°C, detergent

`Nc1ncnc2c1ncn2[C@@H]1O[C@H](COP(=O)(O)OP(=O)(O)O)[C@@H](O)[C@H]1O` [ADP] gave an IC50 (TM287/288 [1]; TM287/288, 25°C, read-out: IC50) of 505 ± 21 µM, a Ki (TM287/288 [1]; TM287/288, 25°C, read-out: Ki) of 3.28 ± 0.44 µM and an IC50 (TM287/288 [1]; [5]) of 681 ± 160 µM. The Ki (TM287/288 [1]; TM287/288, 50°C, read-out: Ki) was 10.4 ± 2.9 µM, the IF frac (TM287/288 [2]; [6]) was 90.1% and the OF frac (TM287/288 [2]; [6]) was 9.9%. The IF frac (TM287/288 [2]; [7]) was 100%, the OF frac (TM287/288 [2]; [7]) was 0% and the IF frac (TM287/288 [2]; [8]) was 82%. It also gave an OF frac (TM287/288 [2]; [8]) of 18%.
For `Nc1ncnc2c1ncn2[C@@H]1O[C@H](CO[P@](=O)(O)O[P@](=O)(O)O[P@@](=O)(O)S)[C@@H](O)[C@H]1O` [ATPγS], the IC50 (TM287/288 [1]; IC50, TM287/288, 25°C) was 31.4 ± 2.8 µM, the IC50 (TM287/288 [1]; IC50, TM287/288, 50°C) was 2.86 ± 0.08 µM and the Ki (TM287/288 [1]; Ki, TM287/288, 25°C) was 0.204 ± 0.032 µM. The Ki (TM287/288 [1]; Ki, TM287/288, 50°C) was 0.0439 ± 0.0062 µM, the “rate of hydrolysis of ATPγS relative to that determined for ATP” value (ABCB1) was 0.4% and the IF frac (TM287/288 [2]; [6]) was 45.2%. For the same compound, the OF frac (TM287/288 [2]; [6]) was 54.8%, the IF frac (TM287/288 [2]; [7]) was 72.9% and the OF frac (TM287/288 [2]; [7]) was 27.1%. It also gave an IF frac (TM287/288 [2]; [8]) of 63.7%, an OF frac (TM287/288 [2]; [8]) of 36.3% and an IC50 (BmrCD) of 221 ± 24 µM. The Ki (BmrCD) was 26.7 ± 3.3 µM.
For `O=C(O)CN(CCN(CC(=O)O)CC(=O)O)CC(=O)O` [EDTA], the “ATPase activity in the presence of EDTA” value (TM287/288 [3]; 2.5 mM EDTA added to chelate Mg2+, wildtype TM287/288) was “did not observe any detectable ATPase activity”, the ATPase activity (TM287/288 [3]; [9]) was less than 0.1 nmol Pi/min/mg protein and the “ATPase activity, % of wildtype” value (TM287/288 [3]; [9]) was less than 0.005%. It also gave a Turnover per transporter (TM287/288 [3]; [9]) of less than 0.01 min⁻¹.
For `CCOc1ccc(-c2nc3ccc(-c4nc5ccc(N6CCN(C)CC6)cc5[nH]4)cc3[nH]2)cc1` [Hoechst 33342], the “stimulation of ATPase activity” value (TM287/288 [4]) was “robust ATPase stimulation”.
With `[Na+].[Na+].[Na+].[O]=[V]([O-])([O-])[O-]` [Vanadate, sodium orthovanadate] the “residual ATPase activity” value (TM287/288 [1]; 1 mM vanadate, 50°C, TM287/288) was 8%, the IC50 (TM287/288 [1]; [5]) was 4.9 ± 0.29 µM and the Ki (TM287/288 [1]; TM287/288, 50°C, read-out: Ki) was 0.0751 ± 0.0114 µM. For the same compound, the ATPase activity (TM287/288 [1]; [10]) was 165 ± 20 nmol Pi/min/mg protein, the “ATPase activity, % of wildtype” value (TM287/288 [1]; [10]) was 7.71% and the Turnover per transporter (TM287/288 [1]; [10]) was 21.9 min⁻¹. For the same compound, the “turnover rate, ATP hydrolysis inhibited by vanadate” value (TM287/288 [1]; wildtype TM287/288, vanadate, 50°C) was 22 ATP min^−1.
